Laboratory results: paper PMC7407272, “Induction of Lysosome Membrane Permeabilization as a Therapeutic Strategy to Target Pancreatic Cancer Stem Cells” (Cancers, 2020)

Legend:
[1] = tested on: re-plated PDAC2-derived spheres; assay: Cytosolic cysteine cathepsin activity; format: cell-based, human; conditions: 1.25 or 2.5 µM, 6 h
Method: Spheres were re-plated, and then treated the following day with the indicated concentration of compounds for 6 h in CSC media. Cells were subsequently placed on ice and extracted with either 25 µg/mL or 250 µg/mL of digitonin in 250 mM sucrose, 20 mM HEPES, 10 mM KCl, 1.5 mM MgCl2, 1 mM EDTA, 1 mM EGTA, 1 mM pefablock, pH 7.5. The extracts were taken and spun down briefly to eliminate floating cells. Cathepsin activity was measured in a 96 well format by measuring cleavage of zFR-AMC (Z-Phe-Arg-AMC. Z: N-carbobenzyloxy; 7-Amino-4-methylcoumarin), as previously described.

ABL1(F317I)-P = target: T1, ABL1(F317I)-P (Homo sapiens, UniProt P00519, F317I); assay: KINOMEscan; format: binding; conditions: read-out: % Ctrl
T1 construct: purchased DiscoveRx KINOMEscan

FGR = target: T2, FGR (Homo sapiens, UniProt P09769); assay: KINOMEscan; format: binding; conditions: read-out: % Ctrl
T2 construct: purchased DiscoveRx KINOMEscan

FLT3 = target: T3, FLT3 (Homo sapiens, UniProt P36888); assay: KINOMEscan; format: binding; conditions: read-out: % Ctrl
T3 construct: purchased DiscoveRx KINOMEscan

ABL1(Q252H)-P = target: T4, ABL1(Q252H)-P (Homo sapiens, UniProt P00519, Q252H); assay: KINOMEscan; format: binding; conditions: read-out: % Ctrl
T4 construct: purchased DiscoveRx KINOMEscan

FLT3(ITD,D835V) = assay: KINOMEscan; format: binding, human; conditions: 1 µM
ABL1-nonP = target: T5, ABL1-nonP (Homo sapiens, UniProt P00519); assay: KINOMEscan; format: binding; conditions: read-out: % Ctrl
T5 construct: purchased DiscoveRx KINOMEscan

FLT3(K663Q) = target: T6, FLT3(K663Q) (Homo sapiens, UniProt P36888, K663Q); assay: KINOMEscan; format: binding; conditions: read-out: % Ctrl
T6 construct: purchased DiscoveRx KINOMEscan

FLT3-autoi. = target: T7, FLT3-autoi. (Homo sapiens, UniProt P36888); assay: KINOMEscan; format: binding; conditions: read-out: % Ctrl
T7 construct: purchased DiscoveRx KINOMEscan

PIK3CA(Q546K) = target: T8, PIK3CA(Q546K) (Homo sapiens, UniProt P42336, Q546K); assay: KINOMEscan; format: binding; conditions: read-out: % Ctrl
T8 construct: purchased DiscoveRx KINOMEscan

ADCK4 = target: T9, ADCK4 (Homo sapiens, UniProt Q96D53); assay: KINOMEscan; format: binding; conditions: read-out: % Ctrl
T9 construct: purchased DiscoveRx KINOMEscan
T9 sequence (Q96D53 whole entry): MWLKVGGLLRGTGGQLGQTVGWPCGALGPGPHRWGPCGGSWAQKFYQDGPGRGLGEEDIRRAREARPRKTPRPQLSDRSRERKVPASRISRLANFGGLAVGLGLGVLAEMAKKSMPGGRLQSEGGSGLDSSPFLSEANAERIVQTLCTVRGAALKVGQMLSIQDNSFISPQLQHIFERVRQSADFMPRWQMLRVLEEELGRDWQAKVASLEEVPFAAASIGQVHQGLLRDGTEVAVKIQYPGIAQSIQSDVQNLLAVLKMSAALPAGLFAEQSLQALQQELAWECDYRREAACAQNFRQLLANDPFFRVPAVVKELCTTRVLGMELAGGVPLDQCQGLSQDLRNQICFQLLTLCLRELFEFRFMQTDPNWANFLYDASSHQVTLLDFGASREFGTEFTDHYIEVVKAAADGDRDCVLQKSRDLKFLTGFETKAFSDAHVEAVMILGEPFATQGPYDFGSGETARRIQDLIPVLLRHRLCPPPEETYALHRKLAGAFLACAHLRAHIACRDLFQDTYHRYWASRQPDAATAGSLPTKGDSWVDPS

AKT3 = target: T10, AKT3 (Homo sapiens, UniProt Q9Y243); assay: KINOMEscan; format: binding; conditions: read-out: % Ctrl
T10 construct: purchased DiscoveRx KINOMEscan

PIM2 = target: T11, PIM2 (Homo sapiens, UniProt Q9P1W9); assay: KINOMEscan; format: binding; conditions: read-out: % Ctrl
T11 construct: purchased DiscoveRx KINOMEscan

PKN1 = target: T12, PKN1 (Homo sapiens, UniProt Q16512); assay: KINOMEscan; format: binding; conditions: read-out: % Ctrl
T12 construct: purchased DiscoveRx KINOMEscan

BMPR2 = target: T13, BMPR2 (Homo sapiens, UniProt Q13873); assay: KINOMEscan; format: binding; conditions: read-out: % Ctrl
T13 construct: purchased DiscoveRx KINOMEscan
T13 sequence (Q13873 27-1038): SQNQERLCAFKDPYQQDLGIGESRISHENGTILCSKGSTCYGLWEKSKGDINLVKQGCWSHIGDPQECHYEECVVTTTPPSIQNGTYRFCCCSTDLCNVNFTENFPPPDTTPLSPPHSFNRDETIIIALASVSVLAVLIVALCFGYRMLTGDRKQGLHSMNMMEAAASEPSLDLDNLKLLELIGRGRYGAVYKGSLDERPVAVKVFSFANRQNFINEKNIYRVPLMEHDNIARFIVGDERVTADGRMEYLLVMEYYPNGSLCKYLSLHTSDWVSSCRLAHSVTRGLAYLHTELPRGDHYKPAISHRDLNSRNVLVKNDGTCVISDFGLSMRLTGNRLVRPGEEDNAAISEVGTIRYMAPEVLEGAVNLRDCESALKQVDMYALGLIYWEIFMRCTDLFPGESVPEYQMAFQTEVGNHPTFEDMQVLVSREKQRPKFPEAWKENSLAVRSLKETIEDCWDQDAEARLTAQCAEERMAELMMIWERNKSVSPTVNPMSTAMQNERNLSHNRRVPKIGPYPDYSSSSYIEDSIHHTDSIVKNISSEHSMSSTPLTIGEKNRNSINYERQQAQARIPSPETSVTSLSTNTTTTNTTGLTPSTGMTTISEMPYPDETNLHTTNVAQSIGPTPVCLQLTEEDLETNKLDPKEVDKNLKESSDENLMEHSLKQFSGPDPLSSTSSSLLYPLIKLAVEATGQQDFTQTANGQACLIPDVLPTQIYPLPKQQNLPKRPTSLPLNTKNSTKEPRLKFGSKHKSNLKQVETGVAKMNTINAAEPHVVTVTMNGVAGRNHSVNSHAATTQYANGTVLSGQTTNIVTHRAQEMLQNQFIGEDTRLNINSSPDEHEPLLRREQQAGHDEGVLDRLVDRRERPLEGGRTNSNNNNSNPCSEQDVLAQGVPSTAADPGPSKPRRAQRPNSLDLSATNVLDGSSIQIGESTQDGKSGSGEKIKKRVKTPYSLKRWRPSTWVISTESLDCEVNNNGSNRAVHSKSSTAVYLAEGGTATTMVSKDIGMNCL

BRSK2 = target: T14, BRSK2 (Homo sapiens, UniProt Q8IWQ3); assay: KINOMEscan; format: binding; conditions: read-out: % Ctrl
T14 construct: purchased DiscoveRx KINOMEscan

JAK1(JH1D.-cat.) = target: T15, JAK1(JH1D.-cat.) (Homo sapiens, UniProt P23458); assay: KINOMEscan; format: binding; conditions: read-out: % Ctrl
T15 construct: JAK1(JH1D.-cat.); purchased DiscoveRx KINOMEscan
T15 sequence (P23458 875-1154 limits assumed): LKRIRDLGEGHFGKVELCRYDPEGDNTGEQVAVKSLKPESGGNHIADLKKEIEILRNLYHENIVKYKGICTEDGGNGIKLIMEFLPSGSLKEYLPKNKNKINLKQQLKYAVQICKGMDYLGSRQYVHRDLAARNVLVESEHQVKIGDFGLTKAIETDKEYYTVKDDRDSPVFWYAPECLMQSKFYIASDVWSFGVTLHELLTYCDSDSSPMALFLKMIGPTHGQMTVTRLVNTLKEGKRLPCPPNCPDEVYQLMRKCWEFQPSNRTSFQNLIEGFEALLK

CAMK2A = target: T16, CAMK2A (Homo sapiens, UniProt Q9UQM7); assay: KINOMEscan; format: binding; conditions: read-out: % Ctrl
T16 construct: purchased DiscoveRx KINOMEscan
T16 sequence (Q9UQM7 whole entry): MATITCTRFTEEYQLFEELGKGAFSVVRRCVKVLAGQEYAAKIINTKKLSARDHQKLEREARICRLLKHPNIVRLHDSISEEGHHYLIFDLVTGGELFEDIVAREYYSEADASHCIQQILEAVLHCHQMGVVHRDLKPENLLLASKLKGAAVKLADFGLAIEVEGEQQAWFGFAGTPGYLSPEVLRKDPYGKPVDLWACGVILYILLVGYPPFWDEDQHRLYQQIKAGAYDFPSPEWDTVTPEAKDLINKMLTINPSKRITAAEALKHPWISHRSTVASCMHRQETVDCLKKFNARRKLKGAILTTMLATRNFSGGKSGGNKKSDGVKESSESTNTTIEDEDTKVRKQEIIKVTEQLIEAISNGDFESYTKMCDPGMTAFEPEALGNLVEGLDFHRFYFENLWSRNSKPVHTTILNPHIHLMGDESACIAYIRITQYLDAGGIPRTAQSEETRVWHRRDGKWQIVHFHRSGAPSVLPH

RET(M918T) = target: T17, RET(M918T) (Homo sapiens, UniProt P07949, M918T); assay: KINOMEscan; format: binding; conditions: read-out: % Ctrl
T17 construct: purchased DiscoveRx KINOMEscan

KIT(V559D,T670I) = target: T18, KIT(V559D,T670I) (Homo sapiens, UniProt P10721, T670I/V559D); assay: KINOMEscan; format: binding; conditions: read-out: % Ctrl
T18 construct: purchased DiscoveRx KINOMEscan

CASK = target: T19, CASK (Homo sapiens, UniProt O14936); assay: KINOMEscan; format: binding; conditions: read-out: % Ctrl
T19 construct: purchased DiscoveRx KINOMEscan

CDK4 = target: T20, CDK4 (Homo sapiens, UniProt P11802); assay: KINOMEscan; format: binding; conditions: read-out: % Ctrl
T20 construct: purchased DiscoveRx KINOMEscan
T20 sequence (P11802 whole entry): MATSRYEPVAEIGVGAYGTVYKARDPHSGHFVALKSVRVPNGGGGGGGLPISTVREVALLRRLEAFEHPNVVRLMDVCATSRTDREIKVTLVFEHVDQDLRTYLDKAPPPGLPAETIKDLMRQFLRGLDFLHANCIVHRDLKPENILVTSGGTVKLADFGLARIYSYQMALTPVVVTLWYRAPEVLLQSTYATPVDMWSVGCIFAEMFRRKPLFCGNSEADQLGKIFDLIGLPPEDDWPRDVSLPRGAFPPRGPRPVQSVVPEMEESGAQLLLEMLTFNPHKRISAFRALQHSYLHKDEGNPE

CDK7 = target: T21, CDK7 (Homo sapiens, UniProt P50613); assay: KINOMEscan; format: binding; conditions: read-out: % Ctrl
T21 construct: purchased DiscoveRx KINOMEscan
T21 sequence (P50613 whole entry): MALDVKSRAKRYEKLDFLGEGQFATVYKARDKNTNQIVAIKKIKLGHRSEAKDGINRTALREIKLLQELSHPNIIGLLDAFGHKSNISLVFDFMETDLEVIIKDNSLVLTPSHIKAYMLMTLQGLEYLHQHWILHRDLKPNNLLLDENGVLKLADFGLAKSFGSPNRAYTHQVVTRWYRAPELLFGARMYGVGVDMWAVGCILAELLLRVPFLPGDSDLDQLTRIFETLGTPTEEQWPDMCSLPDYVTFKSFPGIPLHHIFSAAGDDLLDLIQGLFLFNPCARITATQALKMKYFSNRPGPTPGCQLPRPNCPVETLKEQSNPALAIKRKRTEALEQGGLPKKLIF

CDK9 = target: T22, CDK9 (Homo sapiens, UniProt P50750); assay: KINOMEscan; format: binding; conditions: read-out: % Ctrl
T22 construct: purchased DiscoveRx KINOMEscan

CHEK2 = target: T23, CHEK2 (Homo sapiens, UniProt O96017); assay: KINOMEscan; format: binding; conditions: read-out: % Ctrl
T23 construct: purchased DiscoveRx KINOMEscan

MAP4K2 = target: T24, MAP4K2 (Homo sapiens, UniProt Q12851); assay: KINOMEscan; format: binding; conditions: read-out: % Ctrl
T24 construct: purchased DiscoveRx KINOMEscan

RSK4(KD1-N-t.) = target: T25, RSK4(KD1-N-t.) (Homo sapiens, UniProt Q9UK32); assay: KINOMEscan; format: binding; conditions: read-out: % Ctrl
T25 construct: RSK4(KD1-N-t.); purchased DiscoveRx KINOMEscan

SGK = target: T26, SGK (Homo sapiens, UniProt O00141); assay: KINOMEscan; format: binding; conditions: read-out: % Ctrl
T26 construct: purchased DiscoveRx KINOMEscan

SRMS = target: T27, SRMS (Homo sapiens, UniProt Q9H3Y6); assay: KINOMEscan; format: binding; conditions: read-out: % Ctrl
T27 construct: purchased DiscoveRx KINOMEscan

MEK5 = target: T28, MEK5 (Homo sapiens, UniProt Q13163); assay: KINOMEscan; format: binding; conditions: read-out: % Ctrl
T28 construct: purchased DiscoveRx KINOMEscan

DCAMKL3 = target: T29, DCAMKL3 (Homo sapiens, UniProt Q9C098); assay: KINOMEscan; format: binding; conditions: read-out: % Ctrl
T29 construct: purchased DiscoveRx KINOMEscan

DLK = target: T30, DLK (Homo sapiens, UniProt Q12852); assay: KINOMEscan; format: binding; conditions: read-out: % Ctrl
T30 construct: purchased DiscoveRx KINOMEscan
T30 sequence (Q12852 whole entry): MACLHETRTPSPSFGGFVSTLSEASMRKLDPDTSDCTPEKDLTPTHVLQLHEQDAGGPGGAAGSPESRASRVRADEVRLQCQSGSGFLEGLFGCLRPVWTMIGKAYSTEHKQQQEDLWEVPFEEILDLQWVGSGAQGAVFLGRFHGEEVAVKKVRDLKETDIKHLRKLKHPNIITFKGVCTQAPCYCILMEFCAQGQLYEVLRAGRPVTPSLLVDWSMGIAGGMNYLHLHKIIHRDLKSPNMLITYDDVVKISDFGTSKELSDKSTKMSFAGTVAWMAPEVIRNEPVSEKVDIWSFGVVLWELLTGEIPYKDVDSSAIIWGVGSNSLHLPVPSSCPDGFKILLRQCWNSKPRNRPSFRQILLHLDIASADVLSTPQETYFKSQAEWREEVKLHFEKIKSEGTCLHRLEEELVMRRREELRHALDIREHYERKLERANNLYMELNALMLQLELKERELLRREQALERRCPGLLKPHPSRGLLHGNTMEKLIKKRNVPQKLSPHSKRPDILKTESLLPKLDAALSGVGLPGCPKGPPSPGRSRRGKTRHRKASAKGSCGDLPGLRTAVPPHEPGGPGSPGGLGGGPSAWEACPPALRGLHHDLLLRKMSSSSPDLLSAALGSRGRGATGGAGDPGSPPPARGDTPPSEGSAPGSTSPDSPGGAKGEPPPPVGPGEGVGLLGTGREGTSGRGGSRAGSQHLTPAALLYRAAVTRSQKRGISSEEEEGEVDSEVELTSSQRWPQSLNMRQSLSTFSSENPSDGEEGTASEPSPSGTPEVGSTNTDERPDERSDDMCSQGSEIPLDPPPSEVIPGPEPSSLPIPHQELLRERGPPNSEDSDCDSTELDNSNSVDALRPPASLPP

MLCK = target: T31, MLCK (Homo sapiens, UniProt Q32MK0); assay: KINOMEscan; format: binding; conditions: read-out: % Ctrl
T31 construct: purchased DiscoveRx KINOMEscan

DMPK2 = target: T32, DMPK2 (Homo sapiens, UniProt Q6DT37); assay: KINOMEscan; format: binding; conditions: read-out: % Ctrl
T32 construct: purchased DiscoveRx KINOMEscan

MRCKA = target: T33, MRCKA (Homo sapiens, UniProt Q5VT25); assay: KINOMEscan; format: binding; conditions: read-out: % Ctrl
T33 construct: purchased DiscoveRx KINOMEscan

TGFBR1 = target: T34, TGFBR1 (Homo sapiens, UniProt P36897); assay: KINOMEscan; format: binding; conditions: read-out: % Ctrl
T34 construct: purchased DiscoveRx KINOMEscan

TLK2 = target: T35, TLK2 (Homo sapiens, UniProt Q86UE8); assay: KINOMEscan; format: binding; conditions: read-out: % Ctrl
T35 construct: purchased DiscoveRx KINOMEscan

TNK1 = target: T36, TNK1 (Homo sapiens, UniProt Q13470); assay: KINOMEscan; format: binding; conditions: read-out: % Ctrl
T36 construct: purchased DiscoveRx KINOMEscan

EGFR(L861Q) = target: T37, EGFR(L861Q) (Homo sapiens, UniProt P00533, L861Q); assay: KINOMEscan; format: binding; conditions: read-out: % Ctrl
T37 construct: purchased DiscoveRx KINOMEscan
T37 sequence (P00533 25-1210 L861Q): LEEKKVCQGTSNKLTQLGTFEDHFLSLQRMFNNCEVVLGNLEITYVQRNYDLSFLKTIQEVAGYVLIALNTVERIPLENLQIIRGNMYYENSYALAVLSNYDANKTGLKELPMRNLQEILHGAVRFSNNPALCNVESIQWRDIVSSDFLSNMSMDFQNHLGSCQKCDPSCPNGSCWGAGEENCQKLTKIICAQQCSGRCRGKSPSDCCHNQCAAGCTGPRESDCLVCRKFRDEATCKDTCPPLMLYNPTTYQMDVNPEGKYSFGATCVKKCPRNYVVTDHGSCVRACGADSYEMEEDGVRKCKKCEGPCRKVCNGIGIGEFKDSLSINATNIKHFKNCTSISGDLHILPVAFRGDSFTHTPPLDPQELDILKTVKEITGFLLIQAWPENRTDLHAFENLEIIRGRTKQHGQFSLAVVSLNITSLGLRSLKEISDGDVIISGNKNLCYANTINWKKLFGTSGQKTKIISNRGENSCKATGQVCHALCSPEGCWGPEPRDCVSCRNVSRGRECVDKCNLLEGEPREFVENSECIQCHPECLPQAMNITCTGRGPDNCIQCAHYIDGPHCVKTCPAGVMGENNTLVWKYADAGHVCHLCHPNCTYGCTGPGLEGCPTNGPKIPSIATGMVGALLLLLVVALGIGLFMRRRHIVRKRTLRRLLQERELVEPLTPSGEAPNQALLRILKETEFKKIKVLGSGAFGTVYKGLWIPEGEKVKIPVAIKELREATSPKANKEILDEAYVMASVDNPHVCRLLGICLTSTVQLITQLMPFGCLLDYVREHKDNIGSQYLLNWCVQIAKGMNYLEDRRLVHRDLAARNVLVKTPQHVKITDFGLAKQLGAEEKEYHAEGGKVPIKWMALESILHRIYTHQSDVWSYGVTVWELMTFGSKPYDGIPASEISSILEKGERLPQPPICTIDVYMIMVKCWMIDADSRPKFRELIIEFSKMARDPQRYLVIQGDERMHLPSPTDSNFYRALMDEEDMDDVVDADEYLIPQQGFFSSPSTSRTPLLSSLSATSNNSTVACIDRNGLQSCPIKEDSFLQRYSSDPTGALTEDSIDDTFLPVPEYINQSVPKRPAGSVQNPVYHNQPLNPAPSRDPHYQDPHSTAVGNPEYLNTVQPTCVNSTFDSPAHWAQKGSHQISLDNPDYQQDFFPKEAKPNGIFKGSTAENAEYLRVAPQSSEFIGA

`CN1CCC(CNc2ccc3ncc(C(=O)Nc4cccc(OC(F)(F)F)c4)n3n2)CC1` [Cpd 2] was tested, and the “cytosolic cysteine cathepsin activity” value [1] was “increased cytosolic cysteine cathepsin activity”, the remaining binding at 1 µM (ABL1(F317I)-P) was 94% and the remaining binding at 1 µM (FGR) was 77%. The remaining binding at 1 µM (FLT3) was 92%, the remaining binding at 1 µM (ABL1(Q252H)-P) was 100% and the “% Ctrl” value (FLT3(ITD,D835V)) was 9.1%. For the same compound, the remaining binding at 1 µM (ABL1-nonP) was 100%, the remaining binding at 1 µM (FLT3(K663Q)) was 92% and the remaining binding at 1 µM (FLT3-autoi.) was 82%. It also gave a remaining binding at 1 µM (PIK3CA(Q546K)) of 89%, a remaining binding at 1 µM (ADCK4) of 99% and a remaining binding at 1 µM (AKT3) of 100%. It also gave a remaining binding at 1 µM (PIM2) of 72%, a remaining binding at 1 µM (PKN1) of 100% and a remaining binding at 1 µM (BMPR2) of 87%. The remaining binding at 1 µM (BRSK2) was 100%, the remaining binding at 1 µM (JAK1(JH1D.-cat.)) was 100% and the remaining binding at 1 µM (CAMK2A) was 82%. For the same compound, the remaining binding at 1 µM (RET(M918T)) was 100%, the remaining binding at 1 µM (KIT(V559D,T670I)) was 100% and the remaining binding at 1 µM (CASK) was 93%. For the same compound, the remaining binding at 1 µM (CDK4) was 100%, the remaining binding at 1 µM (CDK7) was 70% and the remaining binding at 1 µM (CDK9) was 98%. It also gave a remaining binding at 1 µM (CHEK2) of 95%, a remaining binding at 1 µM (MAP4K2) of 74% and a remaining binding at 1 µM (RSK4(KD1-N-t.)) of 92%. It also gave a remaining binding at 1 µM (SGK) of 85%, a remaining binding at 1 µM (SRMS) of 87% and a remaining binding at 1 µM (MEK5) of 73%. It also gave a remaining binding at 1 µM (DCAMKL3) of 100%, a remaining binding at 1 µM (DLK) of 100% and a remaining binding at 1 µM (MLCK) of 100%. It also gave a remaining binding at 1 µM (DMPK2) of 97%, a remaining binding at 1 µM (MRCKA) of 100% and a remaining binding at 1 µM (TGFBR1) of 100%. For the same compound, the remaining binding at 1 µM (TLK2) was 100%, the remaining binding at 1 µM (TNK1) was 56% and the remaining binding at 1 µM (EGFR(L861Q)) was 94%.
